Paper PMC10454396 (International Journal of Molecular Sciences, 2023)
≈ marks a conversion by molar mass, not a printed value. Read-outs that look alike come from different tables or passages of the source.

How the values were obtained:
[1] = Plasma protein binding (RED), rat plasma; type: in vitro ADME; details: Wistar, pooled plasma, pH 7.4, rat plasma
Experimental: Plasma protein binding was determined using the Rapid Equilibrium Dialysis (RED) system (Thermo Fisher Scientific, Waltham, MA, USA). The compound was diluted in pooled murine (CD-1)/human or Wistar rat plasma (Neo Biotech, Nanterre, France) to 10 µM and added to the respective chamber according to the manufacturer’s protocol, followed by addition of PBS pH 7.4 to the opposite chamber. Samples were taken immediately after addition to the plate as well as after 2, 4 and 5 h by mixing 10 µL with 80 µL ice-cold acetonitrile containing 12.5 nM diphenhydramine as internal standard, followed by addition of 10 µL plasma to samples taken from PBS and vice versa. Samples were stored on ice until the end of the incubation and precipitated protein was removed by centrifugation (15 min, 4 °C, 4000× g, 2 centrifugation steps). Concentration of the remaining test compound at the different time points was analyzed by HPLC-MS/MS (TSQ Altis Plus, Thermo Fisher, Dreieich, Germany). The amount of compound bound to protein was calculated using the equation PPB [%] = 100 − 100 × (amount in buffer chamber/amount in plasma chamber).

[2] = system: Staphylococcus aureus Newman mCherry; assay: MIC, broth microdilution, mCherry-expressing S. aureus Newman; type: cell-based; details: Staphylococcus aureus, NEWMAN
Experimental: Cefazolin was obtained from Acros Organics. Ciprofloxacin hydrochloride, linezolid and vancomycin hydrochloride were obtained from Sigma-Aldrich (St. Louis, MO, USA). Tetracycline hydrochloride was obtained from Alfa Aesar. Sorangicin A was provided by HZI, Braunschweig. Stock solutions were prepared in Milli-Q water or dimethyl sulfoxide (DMSO, Sigma-Aldrich). Minimum inhibitory concentrations (MICs) were determined in cation-adjusted Mueller-Hinton broth (MHB2) using the broth microdilution method as recommended by the Clinical and Laboratory Standards Institute (CLSI). The MIC was defined as the lowest concentration of the antibiotic causing complete inhibition of visible growth of the microorganism (CLSI, 2017).
1. In vitro characterization of mCherry expressing Staphylococcus aureus Newman
1.1 Minimum inhibitory concentration
Table S1. Antibiotic susceptibility profile of Staphylococcus aureus Newman. WT: wild type. […]

CYP3A4 = details: cited from earlier work
zebrafish embryos = assay: Toxicity of antimicrobials on zebrafish embryos; type: in vivo, Danio rerio
Experimental: Toxicity of antibiotics was assessed by aquatic exposure and microinjection. For evaluation of the maximum tolerated concentration (MTC) by aquatic exposure, embryos were dechorionated at 30 hpf and placed in a flat-bottom 96-well plate (Sarstedt) with one embryo per well. Excess medium was removed and 150 µL of compound dilutions (in 0.3× Danieau’s, maximum of 1% DMSO) were added. For each antibiotic, a range of concentrations was investigated. Ten embryos were used per concentration and ten additional embryos incubated in fish medium without any antibiotic served as negative control. Microinjection of antibiotics into the caudal vein (CV) and the yolk sac was performed as described earlier. PBS-injected embryos served as negative control. Exposed embryos were maintained at 28 °C throughout the whole experiment. Embryos were monitored daily under a stereo microscope (Stemi 508, Zeiss) in order to record survival as well as anomalies, pigmentation, heartbeat and locomotor responses. An embryo was considered dead when no heart beat could be observed.

[3] = system: mCherry-expressing S. aureus Newman; assay: Zebrafish embryo model of S. aureus yolk infection, antibiotic treatment efficacy; type: in vivo, Staphylococcus aureus
Experimental: With the aim to study the in vivo efficacy of drugs, 30 hpf zebrafish embryos were infected with 50 CFU of mCherry-expressing S. aureus Newman. Embryos were then left to recover from injection for two hours and subsequently treated with various reference antibiotics. Antibiotic treatment was performed via bath water immersion as well as via microinjection into the yolk (local treatment) and the caudal vein (systemic treatment) to study whether differences in in vivo activity exist between the three administration routes. Survival was assessed daily until 120 hpf. Additionally, the infection was visualized and quantified by means of fluorescence microscopy at 24 h post treatment (hpt). At the end of every experiment, living embryos (and dead embryos, if possible) were homogenized to determine the remaining bacterial count. Five approved antibiotics from different classes were assessed in vivo. The chosen drugs ought to differ in physicochemical properties, such as molecular weight and polarity, in order to detect a pattern between successful administration routes and the physicochemical properties of the drug. Prior to efficacy assessment, drug-mediated toxicity in zebrafish embryos was investigated using the same administration routes (Figure S3). For microinjection, a fixed dose of 20 to 30 mg/kg was used for each antibiotic. The concentration for bath water immersion was based on the minimum inhibitory concentration (MIC) and the maximum tolerated concentration (MTC) of the drug, whereby it is generally recommended to use 50- to 100-fold the antibacterial MIC to see a positive effect.
Pulled glass capillaries for microinjection (Table S2) were prepared using a micropipette puller (P-1000, Sutter Instrument). Dechorionated and anaesthetized embryos were infected with 50 colony-forming units (CFU) of mCherry-expressing S. aureus Newman by microinjection into the yolk sac at 30 hpf. In order to confirm bacterial numbers, an equal volume of bacterial cells was ejected onto Tryptic Soy Agar (TSA) supplemented with 10 µg/mL chloramphenicol before and after the injection. Antibiotic treatment was performed two hours post infection (hpi) via three different administration routes, namely bath water immersion and microinjection into the yolk sac as well as the caudal vein (CV). The infection procedure and treatment of infected embryos are described in details in the supplementary materials (Table S3).
Embryos were transferred individually to microcentrifuge tubes and washed at least three times with sterile PBS. 200 µL of sterile PBS were added and embryos were mechanically homogenized using a micropestle (Carl Roth, Karlsruhe, Germany). 800 µL of sterile PBS were added to reach a final volume of 1 mL. The homogenates were diluted and plated on tryptic soy agar (TSA). CFU counts were determined after 24 h of incubation at 37 °C.
Embryos were placed in a black 96-well plate (Falcon; Thermo Fisher, Dreieich, Germany) and cryo-anaesthetized by submersion into ice water. Images for quantitative fluorescence analysis were acquired using the following equipment: a fluorescence stereo microscope (M205 FA, Leica Microsystems, Wetzlar, Germany) in combination with a fluorescence illuminator (X-Cite, 200DC, Excelitas Technologies, Waltham, MA, USA) and a microscope camera (DFC7000 T, Leica Microsystems). Quantification of fluorescence was performed using Fiji ImageJ version 2.1.0. Fluorescent Integrated Density (FID) was determined by counting the number of pixels with fluorescence intensity greater than the threshold (10) and multiplying the count with its mean intensity. For confocal imaging, embryos were anaesthetized through immersion in tricaine (945 µM, Sigma-Aldrich) and immobilized in 1.2% low-melting agarose in a flat-bottom 96-well plate. Confocal images and time-lapse series were acquired using the Celldiscoverer 7 with LSM 900 (Zeiss) together with the 5×/0.35 Plan-APOCHROMAT objective.
2. […]

C/C(=C\[C@H](C)CCCCC(=O)O)[C@@H]1O[C@@H]2C=C[C@H]1OC(=O)\C=C/C=C\C=C\[C@H]1O[C@@H]3C[C@H]1O[C@@H](/C=C/C[C@H]1O[C@H](C[C@H](O)[C@H]1C)[C@@H](O)[C@@H](O)/C=C/CC/C=C/C2)[C@@H]3C [sorangicin A]
fraction unbound at 10 µM ([1]; 10 µM, read-out: PPB (converted)): 0.112 | fraction unbound at 10 µM ([1]; read-out: free fraction): > 0.1 | MIC [2]: 0.0625 µg/mL (≈ 0.0774 µM) | CYP3A4 induction (CYP3A4): only moderate CYP3A4 induction | reduction in embryo survival with respect to control (1% DMSO) (zebrafish embryos; long-term aquatic exposure, 200 µg/mL): 10% | tolerability of injection dose (zebrafish embryos; microinjection 30 mg/kg): well-tolerated | well-tolerated concentration (zebrafish embryos; short- and long-term aquatic exposure): up to 100 µg/mL | effect on survival of infected embryos ([3]; bath water immersion 50-100x MIC): did not show any protective effect | difference between treated and untreated embryos ([3]; bath water supplemented with 1000x MIC): no difference | bacterial fluorescence (FID) at 24 hpt ([3]; caudal vein microinjection): Bacterial fluorescence was suppressed | embryos succumbed to the infection ([3]; caudal vein microinjection 2 hpi, 50 CFU yolk infection): 75% | effect on survival of infected embryos ([3]; caudal vein microinjection 20-30 mg/kg, 2 hpi): significantly extended the lifespan | bacterial numbers ([3]; caudal vein microinjection, succumbed embryos): exceeding 10^4 CFU/embryo | bacteria recovered (CFU plating) at 120 hpf ([3]; yolk microinjection): complete eradication of bacteria | bacterial fluorescence (FID) at 24 hpt ([3]; yolk microinjection): reduced bacterial burden | effect on survival of infected embryos ([3]; yolk microinjection 20-30 mg/kg, 2 hpi): significantly increased the survival rate
